According to patent publication US10485880B2, “Antibody-drug conjugates (ADCs) of KSP inhibitors with aglycosylated anti-TWEAKR antibodies” (Bayer Pharma Aktiengesellschaft, priority 2015, dated 2019):
Values belong to the molecule of their own block, whether it stands above or below them.

Tests used:
NCI-H292 cells = experiment: Cytotoxicity of metabolites, MTT assay, NCI-H292; type: cell-based, human
Protocol: NCI-H292: human mucoepidermoid lung carcinoma cells, ATCC-CRL-1848, standard medium: RPMI 1640 (Biochrom; #FG1215, stab. glutamine)+10% FCS (Biochrom; #S0415), TWEAKR-positive, EGFR-positive.
The cells were cultivated according to the standard method using the growth media listed under C-1. The test is carried out by detaching the cells with a solution of Accutase in PBS (Biochrom AG #L2143), pelleting, resuspending in culture medium, counting and sowing into a 96-well culture plate with white bottom (Costar #3610) (NCI H292: 2500 cells/well, KPL-4: 1200 cells/well, LoVo: 1000 cells/well in a total volume of 100 μl). The cells were then incubated in an incubator at 37° C. and 5% carbon dioxide. After 48 h, the medium was replaced. The metabolites in 10 μl of culture medium in concentrations from 10^−5M to 10^−13M were then pipetted to the cells (in triplicate), and the assay was then incubated in an incubator at 37° C. and 5% carbon dioxide. […] To this end, the MTT reagent was incubated with the cells for 4 h, followed by lysis of the cells overnight by addition of the detergent. The dye formed was detected at 570 nm (Infinite M1000 pro, Tecan). The measured data were used to calculate the IC50 of the growth inhibition using the DRC (dose response curve). […]

TWEAKR = molecular target: T1, TWEAKR (Homo sapiens, UniProt Q9NP84); experiment: Agonistic activity of anti-TWEAKR antibodies; type: cell-based
T1 construct: endogenous in cells; host or cells: HT29 (also WiDr, A253, NCI-H322, 786-O)
T1 sequence (Q9NP84 28-129): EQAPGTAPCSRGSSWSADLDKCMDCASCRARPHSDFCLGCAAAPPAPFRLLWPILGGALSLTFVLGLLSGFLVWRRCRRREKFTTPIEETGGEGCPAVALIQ
Text: In this regard, one embodiment of the invention is the provision of antibodies or antigen-binding antibody fragments thereof binding specifically to a TWEAKR at a new epitope, distinguished by selective binding to aspartate (D) at position 47 (D47) of TWEAKR (SEQ ID NO: 169; see also FIG. 1). The identified dependencies of certain TWEAKR amino acids for antibody interaction correlate with the agonistic activity determined for these antibodies. […] Thus, TWEAK binds to a similar, but distinguishable binding site (FIG. 7). Accordingly, the antibodies of the present invention, which show strong agonistic activity, bind to a new epitope (as a function of D47) which is associated with very strong agonistic activity.

Molecule: CC(C)(C)[C@H](c1cc(-c2cc(F)ccc2F)cn1Cc1ccccc1)N(CC[C@H](N)C(=O)NCCNC(=O)CNC(=O)CC(SC[C@H](N)C(=O)O)C(=O)O)C(=O)CO (stereo partly drawn) [Example M2-1, 4-[(2-{[2-({(2S)-2-Amino-4-[{(1R)-1-[1-benzyl-4-(2,5-difluorophenyl)-1H-pyrrol-2-yl]-2,2-dimethylpropyl}(glycoloyl)amino]butanoyl}amino)ethyl]amino}-2-oxoethyl)amino]-2-{[(2R)-2-amino-2-carboxyethyl]sulphanyl}-4-oxobutanoic acid/trifluoroacetic acid (1:1)]
IC50 (NCI-H292 cells; 96 h incubation): 265 nM

Molecule: CC(C)(C)[C@H](c1cc(-c2cc(F)ccc2F)cn1Cc1ccccc1)N(CCCN)C(=O)CO [Example M9, N-(3-Aminopropyl)-N-{(1R)-1-[1-benzyl-4-(2,5-difluorophenyl)-1H-pyrrol-2-yl]-2,2-dimethylpropyl}-2-hydroxyacetamide]
IC50 (NCI-H292 cells; Homo sapiens, NCI-H292, 96 h incubation): 0.924 nM

Agonistic activity (TWEAKR): moderate agonistic activity
B1: PLD-192: "PLD-192 shows moderate agonistic activity and binds as a function of R56 to the cysteine-rich domain, but opposite of the TWEAK ligand site" (antibody, chains of the INN, looked up, V domains shown)
VH: EVQLVESGGGLVQPGGSLRLSCAASGFTFSSYWMSWVRQAPGKGLEWVAEIRLKSDNYATHYAESVKGRFTISRDDSKNSLYLQMNSLRAEDTAVYYCTGYYADAMDYWGQGTLVTVSS
VL: DIQMTQSPSSLSASVGDRVTITCRASQSVSTSSYSYMHWYQQKPGKAPKLLIKYASNLESGVPSRFSGSGSGTDFTLTISSLQPEDFATYYCQHSWEIPYTFGGGTKVEIK
